Assay results reported in patent publication US20260200845A1, “NEUTROPHIL ELASTASE INHIBITOR AND USE THEREOF” (Shanghai Yidi Biotechnology Co., Ltd, priority 2023, published 2026).
pIC50: −log10 of the molar value.

Key:
rhELA2 = biological target: T1, rhELA2 (Homo sapiens, UniProt P08246); assay: Neutrophil elastase (rhELA2) fluorescence inhibition assay; assay type: biochemical; conditions: rhELA2 activated with DPPI; 30 min preincubation, 1 hr with substrate, fluorescence 360 nm/450 nm
T1 sequence (P08246 30-267): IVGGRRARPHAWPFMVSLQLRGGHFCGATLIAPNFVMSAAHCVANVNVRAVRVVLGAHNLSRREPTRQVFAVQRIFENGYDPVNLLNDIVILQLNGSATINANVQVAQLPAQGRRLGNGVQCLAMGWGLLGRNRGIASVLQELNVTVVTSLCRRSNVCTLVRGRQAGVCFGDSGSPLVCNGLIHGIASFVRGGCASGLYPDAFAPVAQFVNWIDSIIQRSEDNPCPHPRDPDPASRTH
Description: Compound preparation: All compounds were dissolved in DMSO at a concentration of 10 mM, and stored at −20° C.
A 1× assay buffer was prepared. […] 1 μL of the serially diluted compound and 65.67 μL of the assay buffer were added into a plate, to obtain 3× working solutions of the positive compound and the test compounds (the final concentration in DMSO was 1.5%). The plate was sealed with a sealing film and shaken on an oscillator for 15 min.
A 1× activation buffer was prepared. rhELA2 was diluted in the activation buffer containing DPPI and incubated at 37° C. for 2 hrs to activate rhELA2. 5 μl of the 3× diluted working solutions of the compound was added to a 384-well plate. rhELA2 was diluted with the 1× assay buffer, to obtain a 3× working solution of rhELA2. 5 μl of the 3× working solution of rhELA2 was added to each well of the 384-well plate. The plate was sealed and incubated for 30 min at room temperature in the dark.
A 3× substrate solution was prepared in the 1× assay buffer. 5 μl of the 3× working solution of the substrate was added into the 384-well plate. The 384-well plate was centrifuged at 1000 rpm for 1 min, and incubated for 1 hr at room temperature in the dark. The fluorescence value FLU at 360 nm/450 nm was read on a plate reader.
The inhibition rate % was calculated. Inhibition rate=(1−(FLU of the compound−FLU of the positive well)/(FLU of the reference well−FLU of the positive well)). FLU of the reference well is that of a well with only the enzyme and no the inhibitor, and FLU of the positive well is that of a well with the enzyme and 3000 nm Sivelestat-2. Then the IC50 value was calculated by the formula Y=Bottom+(Top−Bottom)/(1+10^((LogIC50−X)*HillSlope)) using Graphpad 8.0 software.

[1] = tested on: mouse model of LPS-induced acute lung injury; assay: Animal Test 1: mouse model of LPS-induced acute lung injury; assay type: in vivo, ICR mice; conditions: for Content of inflammatory factor IL-1β (Mean ± SD) / Content of inflammatory factor TNF-α (Mean ± SD): left lung homogenate supernatant, 24 h after LPS, i.v. 25 mg/kg at 0.5 h, 4 h and 12 h, total 75 mg/kg
Description: Test animals: ICR mice, SPF grade, male, weight at the time of administration: 25-28 g.
Animal grouping: 4 groups, each group having 10 animals.
Establishment of mouse model of LPS-induced acute lung injury: The mice were anesthetized by intramuscular injection of Zoletil®50 (0.05 mL/mouse). Then the mice were fixed in a supine position, the cervical trachea was isolated, and lipopolysaccharide (LPS) (1 mg/mL, 35 μL/mouse) was sprayed by a high-pressure atomizing nozzle. The neck skin was sutured, and disinfected with iodophor.
The dosage at each administration was 25 mg/kg, and the total daily dosage was 75 mg/kg.
24 h after LPS was sprayed into the trachea of mice, the mice were sacrificed, and the trachea was isolated and intubated. The left lung lobe was ligated. The lung lavage was carried out with 0.5 mL normal saline (containing 1% serum and 2 U/mL heparin), and then the process was repeated two times. The lavage fluids of the 3 times were mixed and stood on ice for later use. The ligated left lung lobe was removed from the animal Nos. 1-8 in the blank control group, the model group, the test group and the positive control group respectively, weighed, added with 0.9% NaCl at a ratio of 1:6, homogenized at 4° C. and centrifuged at 10000 rpm for 10 min. The supernatant was collected and the contents of inflammatory factors IL-1B and TNF-α were determined.

[2] = tested on: rat model of hydrochloric acid-induced acute lung injury; assay: Animal Test 2: rat model of hydrochloric acid-induced acute lung injury; assay type: in vivo, rats
Description: Animal grouping: 4 groups, each group having 8 animals.
Establishment of rat model of hydrochloric acid-induced acute lung injury: 0.1 N HCL was sprayed into the trachea of rats at a dosage of 0.1 mL/rat.
Both groups were administered twice by tail vein injection, immediately after the model establishment and again 2.5 hrs after the model establishment.
The rats were sacrificed 5 h after the model establishment. Alveolar lavage was performed. The inflammatory cells, protein exudation, pulmonary hemorrhage and NE enzyme activity in the lavage fluid were measured.

[3] = alveolar lavage fluid 5 h after model establishment, tail vein injection twice, total 30 mg/kg
[4] = alveolar lavage fluid 5 h after model establishment, tail vein injection twice, total 120 mg/kg

Structure (SMILES) | pIC50 (rhELA2) | also measured
C[C@@H](NC(=O)c1ccccc1NS(=O)(=O)c1ccc(OC(=O)C(C)(C)C)c(F)c1)C(=O)O [Compound 23] | 8.43 | 
C[C@@H](NC(=O)c1cc(F)ccc1NS(=O)(=O)c1ccc(OC(=O)C(C)(C)C)cc1)C(=O)O [Compound 21] | 8.65 | 
CC(C)(C)C(=O)Oc1ccc(S(=O)(=O)Nc2ccc(-n3ccnc3)cc2C(=O)NCC(=O)O)cc1 [Compound 3] | 7.63 | 
CSCC(NC(=O)c1ccccc1NS(=O)(=O)c1ccc(OC(=O)C(C)(C)C)cc1)C(=O)O (centres unmarked) [Compound 27] | 6.88 | 
CC(C)(C)C(=O)Oc1ccc(S(=O)(=O)N[C@@H]2CCC(F)(F)C[C@@H]2C(=O)NCC(=O)O)cc1 [Compound 6] | 7.48 | 
C[C@@H](NC(=O)c1cc(C#N)ccc1NS(=O)(=O)c1ccc(OC(=O)C(C)(C)C)cc1)C(=O)O [Compound 22] | 8.66 | 
Cn1nccc1-c1ccc(NS(=O)(=O)c2ccc(OC(=O)C(C)(C)C)cc2)c(C(=O)NCC(=O)O)c1 [Compound 1, (5-(1-methyl-1H-pyrazol-5-yl)-2-((4-(pivaloyloxy)phenyl)sulfonamido)benzoyl)glycine] | 7.69 | 
[2H]C([2H])([2H])OC[C@@H](NC(=O)c1ccccc1NS(=O)(=O)c1ccc(OC(=O)C(C)(C)C)cc1)C(=O)O [Compound 25, O-(methyl-d3)-N-(2-((4-(pivaloyloxy)phenyl)sulfonamido)benzoyl)-D-serine] | 8.60 | 
CC(C)(C)C(=O)Oc1ccc(S(=O)(=O)Nc2ccccc2C(=O)NCCS(=O)(=O)O)cc1 [Compound 13, 2-(2-((4-(pivaloyloxy)phenyl)sulfonamido)benzamido) ethan-1-sulfonic acid] | 8.37 | 
COC[C@H](NC(=O)c1ccccc1NS(=O)(=O)c1ccc(OC(=O)C(C)(C)C)cc1)C(=O)O [Compound 26] | 8.07 | 
COC[C@@H](NC(=O)c1cc(C#N)ccc1NS(=O)(=O)c1ccc(OC(=O)C(C)(C)C)cc1)C(=O)O [Compound 24] | 8.82 | 
CC(C)(C)C(=O)Oc1ccc(S(=O)(=O)Nc2ccccc2C(=O)NCC(=O)O)cc1 [Sivelestat sodium, reference compound] |  | Content of inflammatory factor IL-1β (Mean ± SD) [1]: 1048 ± 384 ^ pg/mL; Content of inflammatory factor TNF-α (Mean ± SD) [1]: 552 ± 77 pg/mL; Protein content in alveolar lavage fluid (mg/mL) [2, 3]: 0.35 ± 0.07 **^ mg/mL; Pulmonary hemorrhage (IOD, absorbance at 412 nm) [2, 3]: 0.25 ± 0.10; White blood cell count (WBC, 1 × 10^6 cell/mL) [2, 3]: 0.42 ± 0.11 1 × 10^6 cell/mL
CC(C)(C)C(=O)Oc1ccc(S(=O)(=O)Nc2ccccc2C(=O)NCP(=O)(O)O)cc1 [Compound 12, ((2-((4-(pivaloyloxy)phenyl)sulfonamido)benzamido)methyl)phosphonic acid] | 8.24 | 
COC[C@@H](NC(=O)c1ccccc1NS(=O)(=O)c1ccc(OC(=O)C(C)(C)C)cc1)C(=O)O [Compound 20] | 8.61 | inhibitory effects on inflammatory factors IL-1B and TNF-α, compared with Sivelestat sodium ([1]; both 75 mg/kg total, i.v.): significantly better than those of Sivelestat sodium; Content of inflammatory factor IL-1β (Mean ± SD) [1]: 784 ± 159 pg/mL; Content of inflammatory factor TNF-α (Mean ± SD) [1]: 442 ± 118 pg/mL; improvement of pulmonary hemorrhage, reduction of protein exudation and white blood cell count in alveolar lavage fluid, compared with Sivelestat sodium ([2]; Compound 20 120 mg/kg vs Sivelestat sodium 30 mg/kg): more obviously compared with Sivelestat sodium; Protein content in alveolar lavage fluid [2, 4]: 0.30 ± 0.05 mg/mL; Pulmonary hemorrhage (IOD, absorbance at 412 nm) [2, 4]: 0.20 ± 0.03; White blood cell count (WBC, 1 × 10^6 cell/mL) [2, 4]: 0.28 ± 0.10 ** 1 × 10^6 cell/mL
CC(C)(C)C(=O)Oc1ccc(S(=O)(=O)Nc2ccccc2C(=O)N[C@H](CF)C(=O)O)cc1 [Compound 19] | 8.65 | 
CC(C)(C)C(=O)Oc1ccc(S(=O)(=O)Nc2ccc(-c3cnoc3)cc2C(=O)NCC(=O)O)cc1 [Compound 11] | 7.57 | 
Cn1cc(-c2ccc(NS(=O)(=O)c3ccc(OC(=O)C(C)(C)C)cc3)c(C(=O)NCC(=O)O)c2)cn1 [Compound 2] | 7.52 | 
COc1ccc(NS(=O)(=O)c2ccc(OC(=O)C(C)(C)C)cc2)c(C(=O)NCC(=O)O)c1 [Compound 17] | 7.81 | 
